Experimental findings from patent publication US9181290B2, “Inhibition of biofilm formation by 1,2,3,4,6-penta-O-galloyl-D-glucopyranose” (CHANG GUNG UNIVERSITY, priority 2011, dated 2015) are described below.

In assay [1] the test system is S. aureus SA113. The assay can be described thus: Biofilm formation on β-PGG/polyaniline-coated silicon rubber discs (safranin staining). Type of assay: cell-based. The settings on record: Staphylococcus aureus, polyaniline carrier, 24 hrs. The protocol: β-PGG (stock conc.: 8.89 μg/mL in DMSO) in various amounts was evenly mixed with a fixed amount of polyaniline (40 μL, 3 mg/mL in DMSO) so as to provide a 100 μL β-PGG/polyaniline mixture with a final β-PGG concentration of 0.47 μM, 0.94 μM, 1.89 μM, 3.78 μM, 4.73 μM or 5.67 μM. The resultant β-PGG/polyaniline mixture was coated on the inner surfaces of the wells of 96-well polystyrene microtiter plates in an amount of 100 μL per well. After β-PGG coating, the plates were dried in a vacuum chamber, followed by UV sterilization for 30 min. An overnight culture of S. aureus SA113 was 200-fold diluted with TSBg, and a 200 μL aliquot of the diluted culture was seeded into each well of the β-PGG-coated microtiter plates. After culturing at 37° C. for 24 hrs, the wells were washed twice with PBS, and then examined by safranin staining according to a method described earlier (Christine Heilmann et al. (1996), Infect. Immun., 64 (1):277-282), so as to quantify the amount of biofilm formed on the β-PGG-coated polystyrene surface.
Meanwhile, 6-mm diameter silicon rubber discs, which were cut from a sheet of 2-mm thick silicon rubber with a paper punch, were also coated with the resultant β-PGG mixture in an amount of 100 μL per disc. […] After incubation at 37° C. for 24 hrs, each silicon rubber disc was subjected to safranin staining, so as to quantify the amount of biofilm formed thereon.

Assay [2] concerns icaA gene transcription in S. aureus SA113. Briefly: icaA expression by real-time RT-PCR. The class given is cell-based, Staphylococcus aureus. The settings on record: concentrations below 50 μM, 5 hr treatment, normalized to gyrB. As to the method:
Bacterial cells were treated with 0.5 mg/mL lysostaphin (Sigma-Aldrich) at 37° C. for 15 min, and total bacterial mRNA was isolated and purified using a TRIzol reagent (Invitrogen) according to the manufacturer's instructions, followed by quantification of icaA expression by real-time RT-PCR (LightCycler, Roche, Mannheim, Germany). The icaA mRNA was reverse-transcribed and amplified using primers A1 (5′-[…]-3′) (SEQ ID NO:1) and B1 (5′-[…]-3′) (SEQ ID NO:2) that were designed based on the sequence of the icaA gene (Gene ID:3921484). […] Amplified PCR products were detected using a Light Cycler-RNA Amplification Kit Cyber Green 1 (Roche, Mannheim, Germany), starting with a cycle of denaturation at 95° C. for 5 min, then running for 45 cycles as follows: at 95° C. for 30 sec, 62° C. for 30 sec and 72° C. for 20 sec. To monitor the specificity of RT-PCR reaction, the PCR products were analyzed by melting curve analysis.
To determine whether the β-PGG inhibition effected at the transcriptional level, total mRNAs were isolated from S. aureus SA113 cells after 5 hr treatment with β-PGG at various concentration (0, 3.13, 12.5 and 50 μM), and transcription of the icaA gene was analyzed by LightCycler quantitative RT-PCR.

The test system of another assay is S aureus SA113. The assay can be described thus: Bacterial attachment onto glass coverslips (data not shown). The class given is cell-based, Staphylococcus aureus.
For assay [3], the system named is S. aureus SA113. The assay can be described thus: CFU counting of cells adhered to polystyrene surface. The class given is cell-based, Staphylococcus aureus. From the text: To count the number of viable cells, the removed suspended cells were suspended in PBS by pipetting, and the resultant cell suspension was sonicated and serially diluted and subsequently plated on TSBg agar plate for colony forming unit (CFU) counting according to a method described earlier (S. Schlag et al. (2007), J. Bacteriol., 189:7911-7919).
In addition to biofilm formation, the number of cells attached to polystyrene surface and polycarbonate surface were also counted. Subsequent to the incubation of S. aureus SA113 cells with β-PGG (0 μM, 6.25 μM or 12.5 μM) for 20, 40 and 60 min, cells adhered to the polystyrene surface or polycarbonate surface were washed and suspended in PBS, followed by plating on TSBg agar for CFU counting. After incubation on polystyrene surface for 20, 40 and 60 min, the number of cells counted for the DMSO-treated control (i.e., 0 μM β-PGG) was 4.1×10^5, 6.4×10^5 and 7.8×10^5 CFU, respectively (FIG. 4, panel A, black bars).

Assay [4] deals with S. aureus SA113. The assay can be described thus: Scanning electron microscopy of cells on polycarbonate discs. The class given is cell-based, Staphylococcus aureus. The following applies: 3.13 μM, 6 hrs. As to the method:
S. aureus SA113 cells were grown on polycarbonate discs in the presence or absence of 3.13 μM β-PGG. After 6 hours incubation, the discs were washed three times with PBS to remove planktonic cells and then prepared for SEM examination as described elsewhere (Guo-Xian Wei et al. (2006), supra). The samples thus prepared were observed using a Hitachi S-5000 scanning electron microscope.

A further assay has as its system Acinetobacter baumannii. The assay can be described thus: Anti-biofilm activity (data not shown). The class given is cell-based.
The test system of the next assay is Enterococcus faecalis. The assay can be described thus: Anti-biofilm activity (data not shown). Type of assay: cell-based.

The term inhibition denotes how much of the control response was suppressed. A higher inhibition goes with a response far below the control. In turn, `O=C(OC[C@H]1O[C@@H](OC(=O)c2cc(O)c(O)c(O)c2)[C@H](OC(=O)c2cc(O)c(O)c(O)c2)[C@@H](OC(=O)c2cc(O)c(O)c(O)c2)[C@@H]1OC(=O)c1cc(O)c(O)c(O)c1)c1cc(O)c(O)c(O)c1` [β-PGG, 1,2,3,4,6-penta-O-galloyl-β-D-glucopyranose] registered an inhibition at 1.9 µM in the assay on S. aureus SA113 [1] (coating with 1.9 μM β-PGG) of 62%. At 5.7 µM the inhibition with S. aureus SA113 [1] (coating with 5.7 μM β-PGG) was 85%. Further, the “transcription of icaA” value in assay [2] is recorded as “did not influence the transcription of icaA”. In the assay with S aureus SA113, the “bacterial attachment onto glass coverslips” value is recorded as “inhibited bacterial attachment onto glass coverslips”. Moreover, the “number of cells attached to polystyrene surface” value is 2.1×10^5 CFU in the assay with S. aureus SA113 [3] (6.25 μM, 20 min, DMSO control 4.1×10^5); 2.05×10^5 CFU in the assay on S. aureus SA113 [3] (6.25 μM, 40 min, DMSO control 6.4×10^5); 1.8×10^5 CFU in the assay on S. aureus SA113 [3] (6.25 μM, 60 min, DMSO control 7.8×10^5); 3.7×10^4 CFU in the assay on S. aureus SA113 [3] (12.5 μM, 20 min, DMSO control 4.1×10^5); 2.3×10^4 CFU in the assay with S. aureus SA113 [3] (12.5 μM, 40 min, DMSO control 6.4×10^5); 1.7×10^4 CFU in the assay on S. aureus SA113 [3] (12.5 μM, 60 min, DMSO control 7.8×10^5). Also, the “web structure (likely PIA) on polycarbonate surface by SEM” value in the assay on S. aureus SA113 [4] was “caused the web structure to disappear”. For the same compound, the anti-biofilm activity result in the assay on Acinetobacter baumannii and in the assay with Enterococcus faecalis was “potent to mild anti-biofilm activity” throughout.
